Measured values from patent publication US20180168151A1, “COMPOSITION AND SYSTEM FOR ATTRACTING LEPIDOPTEROUS INSECTS” (The New Zealand Institute for Plant and Food Research …, priority 2015, published 2018).

Assays:
[1] = test system: Lepidopterous insects; assay: Summary of field attractant trials (description); type: in vivo; conditions: other compounds released by infested apple seedlings; results were inconsistent
Method: In the trials described in the Examples, the compounds of formula I were placed inside a permeable polyethylene bag. The acetic acid was applied to a cotton ball inside a 5 ml polyethylene vial containing a 1 mm hole. The bag and vial were placed in the centre of a sticky trap.

[2] = test system: LBAM; assay: Example 1B: individual compounds as attractants, baited traps; type: in vivo, Epiphyas postvittana; conditions: tested individually, 10 mg (acetic acid 0.3 mL); no significant differences among treatments
Method: (§1) This experiment was conducted from 28 Nov. to 12 Dec. 2013 for LBAM and 3-10 Jun. 2015 for ESBM and OBLR to investigate the biological activity of the individual volatile organic compounds. Lures of benzyl alcohol, benzyl nitrile, indole, 2-phenyethanol, (E)-nerolidol, and 0.3 mL acetic acid were made by dispensing 10 mg of each compound on a Boomerang regular cellulose acetate filter (7.5 mm diameter×10 mm, Moss Packaging Co. Ltd., Wellington, New Zealand) inside a permeable polyethylene bag (100 μm wall thickness, 20 mm×20 mm, Masterton, New Zealand) that was then heat-sealed. A trap with a lure without chemical was used as negative control.

[3] = test system: OBLR; assay: as above; type: in vivo, Choristoneura rosaceana; conditions: tested individually, 10 mg
Method: as §1

[4] = test system: TLLR; assay: Example 5: binary and ternary blends, baited traps; type: in vivo, Pandemis limtata; conditions: 100 mg 2-phenylethanol added to 100 mg benzyl nitrile and 3 mL acetic acid
Method: (§2) This trial was conducted in a mixed variety apple orchard in Summerland, British Columbia, Canada from 28 Jul. to 11 Aug. 2014 targeting ESBM and threelined leaf rollers (TLLR). […] White delta traps (Trece Inc) were used.

[5] = test system: ESBM; assay: Example 5: binary and ternary blends, baited traps; type: in vivo, Spilonota ocellana; conditions: 100 mg 2-phenylethanol added to 100 mg benzyl nitrile and 3 mL acetic acid
Method: as §2

[6] = test system: ESBM; conditions: for numbers of ESBM males and females attracted, each alone, compared with each other: 10 mg benzyl nitrile alone, 0.3 mL acetic acid alone
Method: (§3) The variance of mean captures obtained with each compound or each blend of compounds was stabilized using the √(x+1) transformation of counts and the significance of treatment effects tested using ANOVA.
(§4) This experiment was conducted from 21 Jun. to 2 Jul. 2015 only for ESBM and OBLR in a mixed varieties apple orchard in Summerland, British Columbia, Canada (49°34′50.02″N, 119°38′16.57″W). The relative attractiveness of the following treatments was investigated: 1) 10 mg benzyl nitrile alone; 2) 0.3 mL acetic acid alone; and 3) 10 mg benzyl nitrile+0.3 mL acetic acid. A trap with a blank lure was used as negative control.

[7] = test system: OBLR; conditions: for numbers of OBLR males and females attracted, each alone, compared with each other: 10 mg benzyl nitrile alone, 0.3 mL acetic acid alone
Method: as §3, §4

[8] = test system: ESBM
Method: as §3
(§5) This experiment was conducted between the 11th to the 22 Jul. 2014 in a mixed variety organic apple orchard in Summerland, British Columbia, Canada. Large white delta traps (Trece Inc) were used. The loadings of blends were as follow: 1) 100 mg benzyl nitrile and 3 mL acetic acid; 2) 100 mg of 2-phenyethanol and 3 mL acetic acid; 3) 100 mg benzyl alcohol and 3 mL acetic acid. Traps baited with 3 mL of acetic acid was used to quantify the role of acetic acid. A trap with a blank lure was used as negative control. Traps were baited with the compound of formula I and placed in 5 rows, with five replicates of each treatment in a randomized block design. Traps were positioned 1.5 m above the ground in each trap tree, and were spaced 20 m apart in each row. Each treatment was assigned randomly to a trap tree within each row of trees. The polythene sachet and the acetic acid vial were attached to the side of the traps using Velcro tape. Sticky bases were checked weekly during the experimental period.
(§6) This experiment was conducted between 3 Jul. to 17 Jul. 2014 in a mixed variety organic apple orchard in Summerland, British Columbia, Canada using the same experimental protocol as Example 4. The trial targeted both ESBM and OBLR. The relative attractiveness of the following treatments was investigated: 1) 100 mg benzyl nitrile alone; 2) 3 mL acetic acid alone; and 3) 100 mg of benzyl nitrile and 3 mL acetic acid. A trap with a blank lure was used as negative control.

[9] = test system: OBLR
Method: as §3, §5, §6

[10] = test system: ESBM; assay: Example 1B: individual compounds as attractants, baited traps; type: in vivo, Spilonota ocellana; conditions: tested individually, 10 mg (acetic acid 0.3 mL); no significant differences among treatments
Method: as §1

[11] = test system: ESBM; assay: Example 7A: various doses of benzyl nitrile with constant acetic acid, baited traps; type: in vivo, Spilonota ocellana
Method: Large white delta traps (Trece Inc) were used. […] Sticky bases were checked weekly during the experimental period.
This experiment was conducted between 8 Jul. to 22 Jul. […] This trial targeted ESBM. The relative attractiveness of three binary blends containing constant amount of acetic acid (3 mL) plus varying amounts of benzyl nitrile (1, 10, and 100 mg) was investigated. […] Experimental protocol was similar to Example 4.

[12] = 10 mg benzyl nitrile added to 0.3 mL acetic acid, P<0.05
[13] = 100 mg benzyl nitrile added to 3 mL acetic acid
[14] = binary blend containing 1 mg benzyl nitrile, 3 mL acetic acid
[15] = binary blend with constant 3 mL acetic acid

## c1ccc2[nH]ccc2c1 [indole]
[1]
  attractant activity against some insects: some attractant activity

## OCCc1ccccc1 [2-phenylethanol]
[2]
  attraction of adult LBAM into traps: attracted males and females into the traps
[3]
  attraction of OBLR into traps: attracted males and females
[4]
  change in number of TLLR males and females on addition to binary blend benzyl nitrile/acetic acid: did not result in significant increase
[5]
  change in number of ESBM males and females on addition to binary blend benzyl nitrile/acetic acid: did not result in significant increase

## OCc1ccccc1 [benzyl alcohol]
[2]
  attraction of adult LBAM into traps: attracted males and females into the traps

## C=CC(C)(O)CC/C=C(\C)CCC=C(C)C (centres unmarked) [(E)-nerolidol]
[1]
  attractant activity against some insects: some attractant activity

## CC(=O)O [acetic acid]
[6]
  numbers of ESBM males and females attracted, each alone, compared with each other: attracted similar numbers
[7]
  numbers of OBLR males and females attracted, each alone, compared with each other: attracted similar numbers
[8]; 3 mL acetic acid alone
  ESBM males and females attracted, compared with traps baited with benzyl nitrile alone: significantly attracted more males and females
[9]; 3 mL acetic acid alone
  OBLR males and females attracted, compared with traps baited with benzyl nitrile alone: significantly attracted more males and females
[2]
  attraction of adult LBAM into traps: attracted males and females into the traps
[10]
  attraction of ESBM into traps: attracted males and females into the traps

## N#CCc1ccccc1 [benzyl nitrile]
[6]; [12]
  change in number of ESBM males and females caught on addition to acetic acid: significant increases
[6]
  numbers of ESBM males and females attracted, each alone, compared with each other: attracted similar numbers
[7]; [12]
  change in number of OBLR males and females caught on addition to acetic acid: significant increases
[7]
  numbers of OBLR males and females attracted, each alone, compared with each other: attracted similar numbers
[8]; [13]
  fold increase in number of ESBM females caught on addition to acetic acid: 3 fold
  fold increase in number of ESBM males caught on addition to acetic acid: 4 fold
[8]; 100 mg benzyl nitrile alone
  attractiveness to adults ESBM, compound alone: not attractive
[9]; [13]
  fold increase in number of OBLR females caught on addition to acetic acid: 9 fold
  fold increase in number of OBLR males caught on addition to acetic acid: 2 fold
[9]; 100 mg benzyl nitrile alone
  attractiveness to adults OBLR, compound alone: not attractive
[11]; [14]
  ESBM females attracted compared with acetic acid alone: significantly more females
  response of ESBM males compared with acetic acid alone: not significant
[11]; [15]
  change in number of ESBM males and females caught on increasing dose from 1 mg to 10 mg: significant increase
  change in number of ESBM males and females caught on increasing dose from 10 mg to 100 mg: did not result in a significant increase
[2]
  attraction of adult LBAM into traps: attracted males and females into the traps
[10]
  attraction of ESBM into traps: attracted males and females into the traps
